{"source": "patent US7253306B2", "about": "“Pharmaceutical drug candidates and methods for preparation thereof” (Neurochem (International) Limited, priority 2003, dated 2007)", "test": "Partition coefficient water/toluene", "format": "physicochemical"}
{"smiles": "O=S1(=O)CCCO1", "note": "[1,3-propane sultone]", "values": [{"measurement": "partition coefficient for water/toluene", "value": 1.4}]}
